This passage reports pest or weed control and mortality results from US20230058623A1, “NOVEL HETEROARYL-TRIAZOLE COMPOUNDS AS PESTICIDES” (Bayer Aktiengesellschaft, priority 2019, published 2023).

Holding throughout (assay type): in vivo
The subject of assay [1] is Rhipicephalus (Boophilus) microplus larvae (strain Parkhurst, resistant against synthetic pyrethroids). In words: Rhipicephalus (Boophilus) microplus in-vitro contact test, larval cattle tick. To be noted: after 48 hours, read-out: activity (efficacy: larvae dead or moribund); for pest or weed control at 1 µg/cm2, 100 g/ha: application rate 1 μg/cm^2 (=100 g/ha); for pest or weed control at 5 µg/cm2, 500 g/ha: application rate 5 μg/cm^2 (=500 g/ha). On the procedure:
Rhipicephalus (Boophilus) microplus—In-Vitro Contact Tests Larval Cattle Tick (Strain Parkhurst, Resistant Against Synthetic Pyrethroids)
9 mg compound is solved in 1 ml acetone and diluted with acetone to the desired concentration. 250 μL of the test solution is filled in 25 mL glass test tubes and homogeneously distributed on the inner walls by rotation and tilting on a shaking device (2 h at 30 rpm). With a compound concentration of 900 ppm, an inner surface of 44.7 cm^2 and a homogeneous distribution, a dose of 5 μg/cm^2 is achieved.
After the solvent has evaporated, each test tube is filled with 20-50 cattle tick larvae (Rhipicephalus microplus), closed with a perforated lid and incubated in a horizontal position at 85% relative humidity and 27° C. in an incubator. After 48 hours efficacy is determined. The larvae are patted on the ground of the tubes and negative geotactic behavior is recorded.
An efficacy of 100% means all larvae are dead or moribund; 0% means no larvae are dead or moribund.

Assay [2] concerns adult engorged female ticks (Rhipicephalus microplus). As to the kind of experiment: Rhipicephalus (Boophilus) microplus injection test. To be noted: 168 h, application rate 4 μg/tick, egg deposition after 7 days, read-out: activity (efficacy: infertile eggs). On the procedure: Rhipicephalus (Boophilus) microplus—Injection Test
Solvent: dimethyl sulfoxide
To produce a suitable preparation of active compound, 10 mg of active compound are dissolved in 0.5 mL solvent, and the concentrate is diluted with solvent to the desired concentration.
Five adult engorged female ticks (Rhipicephalus microplus) are injected with 1 μL compound solution into the abdomen. The ticks are transferred into replica plates and incubated in a climate chamber.
After 7 days egg deposition of fertile eggs is monitored. Eggs where fertility is not visible are stored in a climate chamber till hatching after about 42 days. An efficacy of 100% means all eggs are infertile; 0% means all eggs are fertile.

Assay [3] deals with adult brown dog ticks (Rhipicephalus sanguineus). As to the kind of experiment: Rhipicephalus sanguineus in-vitro contact test, adult brown dog ticks. Conditions: application rate 5 μg/cm^2 (=500 g/ha), after 48 hours, read-out: activity (efficacy: ticks dead or moribund). The method, then: Rhipicephalus sanguineus—In-Vitro Contact Tests with Adult Brown Dog Ticks
(§1) 9 mg compound is solved in 1 mL acetone and diluted with acetone to the desired concentration. 250 μL of the test solution is filled in 25 mL glass test tubes and homogeneously distributed on the inner walls by rotation and tilting on a shaking device (2 h at 30 rpm). With a compound concentration of 900 ppm, an inner surface of 44.7 cm^2 and a homogeneous distribution, a dose of 5 μg/cm^2 is achieved.
After the solvent has evaporated, each test tube is filled with 5-10 adult brown dog ticks (Rhipicephalus sanguineus), closed with a perforated lid and incubated in a lying position at room temperature and relative humidity. After 48 hours efficacy is determined. The ticks are patted on the ground of the tubes and are incubated on a heating plate at 45-50° C. for at most 5 minutes. Immotile or uncoordinated moving ticks, which are not able to escape the heat by climbing upwards, are marked as dead or moribund.
An efficacy of 100% means all ticks are dead or moribund; 0% means no ticks are dead or moribund.

In assay [4] the test system is green peach aphid (Myzus persicae). In words: Myzus persicae oral test. Conditions: 120 h, read-out: activity (mortality). The method, then: Solvent: 100 parts by weight acetone
To produce a suitable preparation of active compound, 1 part by weight of active compound is mixed with the stated amount of solvent, and the concentrate is diluted with water to the desired concentration.
50 μL compound solution is filled in microtiter plates and 150 μL IPL41 insect medium (33%+15% sugar) is added to obtain a total volume of 200 μL per well. Afterwards the plates are sealed with parafilm through which a mixed population of the green peach aphid (Myzus persicae) can suck on the compound preparation.
(§2) After 5 days mortality in % is determined. 100% means all aphids have been killed and 0% means none of the aphids have been killed.

In assay [5] the test system is adult cat fleas (Ctenocephalides felis). As to the kind of experiment: Ctenocephalides felis in-vitro contact test, adult cat flea. To be noted: application rate 5 μg/cm^2 (=500 g/ha), after 48 hours, read-out: activity (efficacy: fleas dead or moribund). On the procedure:
Ctenocephalides felis—In-Vitro Contact Tests Adult Cat Flea
as §1
After the solvent has evaporated, each test tube is filled with 5-10 adult cat fleas (Ctenocephalides felis), closed with a perforated lid and incubated in a lying position at room temperature and relative humidity. After 48 hours efficacy is determined. The fleas are patted on the ground of the tubes and are incubated on a heating plate at 45-50° C. for at most 5 minutes. Immotile or uncoordinated moving fleas, which are not able to escape the heat by climbing upwards, are marked as dead or moribund.
An efficacy of 100% means all fleas are dead or moribund; 0% means no fleas are dead or moribund.

In assay [6] the test system is green peach aphid (Myzus persicae). As to the kind of experiment: Myzus persicae spray test. Conditions: foliar, 120 h, application rate 100 g/ha, after 5 days, Chinese cabbage leaf disks, read-out: activity (mortality). On the procedure: Myzus persicae—Spray Test
(§3) To produce a suitable preparation of active compound, 1 part by weight of active compound is mixed with the stated amount of solvents and is diluted with water, containing an emulsifier concentration of 1000 ppm, to the desired concentration. Further test concentrations are prepared by dilution with emulsifier containing water.
Chinese cabbage (Brassica pekinensis) leaf disks infected with all instars of the green peach aphid (Myzus persicae), are sprayed with a preparation of the active ingredient of the desired concentration.
as §2

Assay [7] relates to fall armyworm larvae (Spodoptera frugiperda). In words: Spodoptera frugiperda spray test. To be noted: 168 h, application rate 100 g/ha, after 7 days, maize leaf sections. On the procedure: Spodoptera frugiperda—Spray Test
as §3
Maize (Zea mays) leaf sections are sprayed with a preparation of the active ingredient of the desired concentration. Once dry, the leaf sections are infested with fall armyworm larvae (Spodoptera frugiperda).
After 7 days mortality in % is determined. 100% means all caterpillars have been killed and 0% means none of the caterpillars have been killed.

The test system of assay [8] is larvae of the banded cucumber beetle (Diabrotica balteata). In words: Diabrotica balteata spray test. To be noted: 168 h, application rate 100 g/ha (=32 μg/well), after 7 days, wheat seeds, read-out: activity (efficacy: seedlings grown). On the procedure: Diabrotica balteata—Spray Test
(§4) To produce a suitable preparation of active compound, 1 part by weight of active compound is mixed with the stated amount of solvent, and the concentrate is diluted with water, containing an emulsifier concentration of 1000 ppm, to the desired concentration. Further test concentrations are prepared by dilution with emulsifier containing water.
Soaked wheat seeds (Triticum aestivum) are placed in a multiple well plate filled with agar and some water and are incubated for 1 day to germinate (5 seeds per well). The germinated wheat seeds are sprayed with a test solution containing the desired concentration of the active ingredient. Afterwards each unit is infected with 10-20 larvae of the banded cucumber beetle (Diabrotica balteata).
After 7 days efficacy in % is determined. 100% means all the seedlings have grown up like in the untreated, uninfected control; 0% means none of the seedlings have grown.

The test system of assay [9] is larvae of the southern green stink bug (Nezara viridula). In words: Nezara viridula spray test. To be noted: 96 h, after 4 days, barley plants; for mortality at 500 g/ha: application rate 500 g/ha, read-out: activity (mortality). On the procedure: Nezara viridula—Spray Test
as §4
Barley plants (Hordeum vulgare) are sprayed with a test solution containing the desired concentration of the active ingredient and are infested with larvae of the southern green stink bug (Nezara viridula).
After 4 days mortality in % is determined. 100% means all the stink bugs have been killed; 0% means none of the stink bugs have been killed.

For the compound `C[C@H](NC(=O)c1cc(C(F)(F)F)cc(C(F)(F)F)c1)c1ncnn1-c1ccc(C(=O)N2CCC(O)CC2)cn1` [Example I-6], in assay [1], the pest or weed control at 1 µg/cm2, 100 g/ha amounted to 90%. Besides, the pest or weed control at 0.004 mg in [2] was determined as 100%. Also, the pest or weed control at 5 µg/cm2, 500 g/ha in assay [3] worked out at 80%. In addition, in assay [4], the mortality (in general, the share of the test organisms that died) at 4 ppm turned out to be 100%.
For the compound `C[C@H](NC(=O)c1cc(C(F)(F)F)cc(C(F)(F)F)c1)c1ncnn1-c1ccc(C(=O)N2CCC2)cn1` [Example I-10], in [1], the pest or weed control at 1 µg/cm2, 100 g/ha stood at 100%. The pest or weed control at 5 µg/cm2, 500 g/ha in assay [1] and in [3] was 100% in each case. In addition, the pest or weed control at 0.004 mg in assay [2] came to 100%. In assay [5], the pest or weed control at 5 µg/cm2 was 100%. Besides, the mortality at 4 ppm in assay [4] came out at 100%. Besides, the mortality at 100 g/ha in assay [6] is 90%; in assay [7], 100%.
Take `Cc1nc([C@H](C)NC(=O)c2cc(C(F)(F)F)cc(C(F)(F)F)c2)n(-c2ncc(C(=O)N3CCCC3)s2)n1` [Example I-16, N-[(1S)-1-{3-methyl-1-[5-(pyrrolidin-1-ylcarbonyl)-1,3-thiazol-2-yl]-1H-1,2,4-triazol-5-yl}ethyl]-3,5-bis(trifluoromethyl)benzamide]: in assay [1], the pest or weed control at 1 µg/cm2, 100 g/ha is 100% and the pest or weed control at 5 µg/cm2, 500 g/ha was 100%. Also, the pest or weed control at 0.004 mg in assay [2] amounted to 80%. Also, the pest or weed control at 32 µg/disc, 100 g/ha in assay [8] stood at 100%. Besides, the mortality at 4 ppm in [4] stood at 100%. Further, the mortality at 100 g/ha in [7] stood at 100%.
With `Cc1nc([C@H](C)NC(=O)c2cc(Cl)cc(C(F)(F)F)c2)n(-c2ccc(C(=O)N3CC[C@H](O)C3)cn2)n1` [Example I-25], in [2], the pest or weed control at 0.004 mg came out at 100%. In assay [4], the mortality at 4 ppm came out at 100%.
As to `Cc1nc([C@H](C)NC(=O)c2cc(Cl)cc(C(F)(F)F)c2)n(-c2ccc(C(=O)N3CC[C@@H](O)C3)cn2)n1` [Example I-26], the pest or weed control at 0.004 mg in [2] is 100%. The mortality at 4 ppm in assay [4] came to 100%.
Consider `C[C@H](NC(=O)c1cc(Cl)cc(C(F)(F)F)c1)c1ncnn1-c1ccc(C(=O)N2CCCOCC2)cn1` [Example I-34], for which, in [1], the pest or weed control at 1 µg/cm2, 100 g/ha worked out at 100% and the pest or weed control at 5 µg/cm2, 500 g/ha is 100%. Besides, the pest or weed control at 0.004 mg in assay [2] was 100%. The pest or weed control at 5 µg/cm2, 500 g/ha in assay [3] was 100%.
Regarding `CC1CCN(C(=O)c2ccc(-n3ncnc3[C@H](C)NC(=O)c3cc(Cl)cc(C(F)(F)F)c3)nc2)CC1` [Example I-38], in [2], the pest or weed control at 0.004 mg worked out at 100%. Besides, the pest or weed control at 5 µg/cm2, 500 g/ha in assay [3] amounted to 80%. In assay [8], the pest or weed control at 32 µg/disc, 100 g/ha came to 100%.
As for `C[C@H](NC(=O)c1cc(C(F)(F)F)cc(C(F)(F)F)c1)c1ncnn1-c1ccc(C(=O)N(C)C2CCN(C)CC2)cn1` [Example I-62], in [8], the pest or weed control at 32 µg/disc, 100 g/ha came to 80%. Besides, the mortality at 500 g/ha in [9] worked out at 100%.
In the case of `C[C@H](NC(=O)c1cc(C(F)(F)F)cc(C(F)(F)F)c1)c1ncnn1-c1ccc(C(=O)N2CCNC(=O)C2)cn1` [Example I-65], the mortality at 4 ppm in [4] turned out to be 100%. Moreover, the mortality at 100 g/ha in assay [9] (application rate 100 g/ha) was 90%.
As for `C[C@H](NC(=O)c1cc(Cl)cc(S(=O)(=O)C2CC2)c1)c1nc(C2CC2)nn1-c1ccc(C(=O)N2CCOCC2)cn1` [Example I-90], the mortality at 500 g/ha in assay [9] worked out at 100%. The compound also displayed a mortality at 100 g/ha in assay [7] of 100%.
With `Cc1nc([C@H](C)NC(=O)c2cc(C(F)(F)F)cc(C(F)(F)F)c2)n(-c2ncc(C(=O)N3C[C@@H](C)O[C@H](C)C3)s2)n1` [Example I-106], in assay [1], the pest or weed control at 1 µg/cm2, 100 g/ha stood at 100% and the pest or weed control at 5 µg/cm2, 500 g/ha was found to be 100%. Besides, the pest or weed control at 0.004 mg in assay [2] was 100%. For the same compound, the pest or weed control at 5 µg/cm2, 500 g/ha in assay [3] stood at 100%. Besides, the pest or weed control at 32 µg/disc, 100 g/ha in [8] worked out at 100%. Besides, the mortality at 4 ppm in assay [4] is 100%. Moreover, the mortality at 100 g/ha in assay [7] came to 100%.
Turning to `CCc1nc([C@H](C)NC(=O)c2cc(Cl)cc(S(=O)(=O)C3CC3)c2)n(-c2ccc(C(=O)N3C[C@@H](C)O[C@@H](C)C3)cn2)n1` [Example I-133], the mortality at 500 g/ha in assay [9] turned out to be 100%. In addition, the mortality at 100 g/ha in [7] stood at 100%.
